Test results reported in patent US20260022114A1, “N-(5-SUBSTITUTED-[(1,3,4-THIADIAZOLYL) OR (1,3-THIAZOLYL)](SUBSTITUTED)CARBOXAMIDE COMPOUNDS, PHARMACEUTICAL COMPOSITIONS, AND METHODS OF PREPARING THE AMIDE COMPOUNDS AND OF THEIR USE” (Repare Therapeutics Inc., priority 2022, published 2026).

Legend:
CYP3A4 [1] = molecular target: T1, CYP3A4 (Homo sapiens (Human), UniProt P08684); assay: Time-dependent inhibition (TDI), IC50 shift +/-NADPH, human liver microsomes; format: in vitro ADME; details: IC50 −NADPH divided by IC50 +NADPH
T1 sequence (P08684 whole entry): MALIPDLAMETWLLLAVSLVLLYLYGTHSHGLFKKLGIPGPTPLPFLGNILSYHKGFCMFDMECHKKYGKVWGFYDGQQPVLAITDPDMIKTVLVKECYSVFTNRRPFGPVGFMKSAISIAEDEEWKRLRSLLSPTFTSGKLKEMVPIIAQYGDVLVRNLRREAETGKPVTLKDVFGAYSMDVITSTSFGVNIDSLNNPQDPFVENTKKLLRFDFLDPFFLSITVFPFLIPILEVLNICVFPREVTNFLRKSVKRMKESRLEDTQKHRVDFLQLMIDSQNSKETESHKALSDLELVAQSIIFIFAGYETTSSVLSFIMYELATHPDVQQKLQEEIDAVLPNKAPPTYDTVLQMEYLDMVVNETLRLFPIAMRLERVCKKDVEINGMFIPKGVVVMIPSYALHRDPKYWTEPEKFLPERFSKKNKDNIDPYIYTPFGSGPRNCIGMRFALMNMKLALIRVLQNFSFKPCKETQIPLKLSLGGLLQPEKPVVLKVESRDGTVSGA
Protocol: Test compound or positive control inhibitors (CYP2C9: Tienilic acid; CYP2D6: paroxetine; CYP3A4: mifepristone) were dissolved in DMSO and a semi-log dilution (up to 50.0 μM) was prepared to 2 incubation plates and normalized for a final DMSO content of 0.5%. Human liver microsomes were diluted at 1 mg/mL with 100 mM potassium phosphate buffer pH 7.4 (1 mM MgCl2) and added to both incubation plates. After pre-incubation at 37° C., the reaction was started with the addition of NADPH (+NADPH condition) or with water (−NADPH condition). Plates were incubated for 30 min and 8 μL were transferred to a second incubation plate containing 72 μL of 1 mM NADPH, 20 μM diclofenac (CYP2C9), 20 μM dextromethorphan (CYP2D6) and 10 μM midazolam (CYP3A4) in 100 mM potassium phosphate buffer pH 7.4 (1 mM MgCl2). Plates were incubated for 10 min and the reaction was stopped by the addition of cold acetonitrile containing internal standard (1:1 v/v). […] Metabolite area ratio (4-OH-diclofenac, dextrorphan and 1-OH-midazolam) versus internal standard area ratio was used as the quantitative signal. Data were analyzed using the plot log of concentration (x axis) versus the percentage of inhibition (y axis) and IC50. Hill Slope and R^2 were determined. The IC50 shift was then calculated by dividing the IC50-NADPH condition by the IC50 obtained in the +NADPH condition.

PXR nuclear receptor = PXR nuclear receptor (Homo sapiens (Human), UniProt O75469); assay: PXR activation luciferase reporter assay; format: cell-based; details: 0.03-10 μM test compound; for PXR activation (% Max activity): percentage of the response of Rifampicin at 10 μM; for fold induction at 24 h: versus vehicle-treated cells, read-out: PXR activation (Max fold induction)
Sequence of PXR nuclear receptor (O75469 whole entry): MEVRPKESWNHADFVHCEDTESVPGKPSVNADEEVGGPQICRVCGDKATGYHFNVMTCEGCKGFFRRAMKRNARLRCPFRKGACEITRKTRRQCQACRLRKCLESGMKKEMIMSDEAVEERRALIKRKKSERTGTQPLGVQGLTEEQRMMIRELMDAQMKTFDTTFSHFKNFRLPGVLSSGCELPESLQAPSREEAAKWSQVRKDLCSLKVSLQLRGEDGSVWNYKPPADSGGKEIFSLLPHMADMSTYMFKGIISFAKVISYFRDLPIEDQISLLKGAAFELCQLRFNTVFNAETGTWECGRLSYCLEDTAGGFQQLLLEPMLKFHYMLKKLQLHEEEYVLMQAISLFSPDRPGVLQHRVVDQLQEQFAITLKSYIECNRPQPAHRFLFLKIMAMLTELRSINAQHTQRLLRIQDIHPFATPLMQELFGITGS
Protocol: An expression vector harboring a full-length PXR nuclear receptor plus the appropriate enhancers and promoters linked to the luciferase reporter gene were integrated into the tumor cells. Tumor cells transfected with the species-specific nuclear receptor and the corresponding response elements were seeded in a 96-well plate. Twenty-four hours after seeding, the cells were treated with six distinct concentrations (0.03-10 μM) of the test compound. The cells were then returned to the incubator for an additional 24 h. After this incubation period, the number of viable cells/well were determined using Promega's Cell Titer Fluor cytotoxicity assay. At the end of the assay, Promega's ONE-Glo was added to assess the receptor activation by monitoring reporter gene activity, and by comparing the results to vehicle-treated cells. Activation data were normalized to the number of viable cells/well. Results are expressed as a percentage of the response given by Rifampicin, the positive control, at a 10 μM dose.

CYP3A4 [2] = molecular target: T1, CYP3A4; assay: Reversible CYP inhibition in human liver microsomes (midazolam); format: in vitro ADME
Protocol: A seven-point semi-log dilution of each test compound (up to 30 μM) or positive control inhibitors for CYP2C9 (up to 1000 nM sulphenazole), CYP2D6 (up to 500 nM quinidine) and CYP3A4 (up to 250 nM ketoconazole) were dissolved in DMSO and added to the incubation plate using a Tecan 300 (normalized for 0.3% DMSO content). Final reaction conditions were: human liver microsomes (0.1 mg/mL), potassium phosphate buffer 100 mM pH 7.4, 1 mM magnesium chloride, 5 μM diclofenac, 5 μM dextromethorphan and 2.5 μM midazolam. After a pre-incubation at 37° C. The reaction was started with the addition of NADPH solution at the final concentration of 1 mM and carried out at 37° C. for 5 minutes. The reaction was stopped by the addition of 1 volume of cold acetonitrile with internal standard (labetalol) to the incubation plate. The incubation plate was centrifuged at 3000 rpm for 10 minutes to precipitate proteins, and the supernatant was analyzed by LC-MS/MS. Metabolite area ratio (4-OH-diclofenac, dextrorphan and 1-OH-midazolam) versus ISTD area ratio was used as the quantitative signal. Data were analyzed using the plot log of concentration (x-axis) versus the percentage of inhibition (y axis) and the IC50, Hill Slope and R^2 were determined.

[3] = Liver microsomal stability assay; format: in vitro ADME; details: pH 7.4; human liver microsomes, 1 μM compound
Protocol: Liver microsomes were thawed on ice prior to use. The incubation mixtures were prepared in 96-well plates and contained test compound or control (1 μM), liver microsomes (0.5 mg of microsomal protein/mL), MgCl2 (5 mM), phosphate buffer (100 mM, pH 7.4), 0.01% DMSO and 1% acetonitrile. A T=0 aliquot was withdrawn after 10 min pre-incubation at 37° C. on a shaker. Reactions were initiated by the addition of NADPH (final concentration of 1 mM) and the plate was kept on a shaker at 37° C., further samples were withdrawn at 5, 15, 30, and 60 minutes. At each timepoint, the reactions were immediately terminated by adding of ice-cold acetonitrile containing internal standard to the withdrawn sample. The extracted samples were centrifuged for 10 minutes at 3200 rpm to pellet the precipitated microsomal protein, and the supernatant was combined 1:1 with water and analyzed by LC-MS/MS. Using the T=0 peak area ratio as 100%, the percentage of parent compound remaining was calculated. For each compound, the In percentage remaining versus incubation time was plotted and the slope of this linear regression (−k) was converted to an in vitro T1/2 value and CLint using the equations below.

[4] = molecular target: PolQ ATPase enzyme (1-894) (Homo sapiens (Human), UniProt O75417); assay: Polθ ATPase enzymatic assay (0.5 nM enzyme concentration), ADP-Glo; format: biochemical; details: 0.5 nM PolQ ATPase enzyme (1-894); average IC50
Sequence of PolQ ATPase enzyme (1-894) (O75417 1-894): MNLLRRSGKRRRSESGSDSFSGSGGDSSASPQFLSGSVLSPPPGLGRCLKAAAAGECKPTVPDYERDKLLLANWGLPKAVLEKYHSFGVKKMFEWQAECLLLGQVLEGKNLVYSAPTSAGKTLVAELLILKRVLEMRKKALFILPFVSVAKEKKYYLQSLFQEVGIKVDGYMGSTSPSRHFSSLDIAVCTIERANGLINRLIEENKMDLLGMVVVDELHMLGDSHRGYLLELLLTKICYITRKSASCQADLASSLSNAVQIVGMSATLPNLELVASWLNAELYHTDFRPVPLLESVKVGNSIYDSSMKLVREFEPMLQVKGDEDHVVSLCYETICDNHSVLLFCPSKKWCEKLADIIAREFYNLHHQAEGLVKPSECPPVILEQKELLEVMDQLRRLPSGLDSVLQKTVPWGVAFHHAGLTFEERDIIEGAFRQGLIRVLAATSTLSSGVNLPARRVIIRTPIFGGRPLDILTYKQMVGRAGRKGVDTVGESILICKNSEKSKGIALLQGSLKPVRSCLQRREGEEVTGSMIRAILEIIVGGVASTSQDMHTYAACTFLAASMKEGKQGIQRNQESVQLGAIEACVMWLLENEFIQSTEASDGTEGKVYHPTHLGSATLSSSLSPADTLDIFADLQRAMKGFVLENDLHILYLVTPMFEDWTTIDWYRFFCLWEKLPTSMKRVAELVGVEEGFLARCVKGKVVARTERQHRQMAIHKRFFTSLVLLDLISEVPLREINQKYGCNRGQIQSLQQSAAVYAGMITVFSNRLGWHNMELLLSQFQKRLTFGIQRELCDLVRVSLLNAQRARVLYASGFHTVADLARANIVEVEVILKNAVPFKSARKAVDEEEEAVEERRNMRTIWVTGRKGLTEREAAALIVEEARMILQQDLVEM
Method in brief: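 Human PolQ ATPase domain (1-894), 0.5 nM, preincubated 15 min at rt with 10-point inhibitor series in 50 mM Tris pH 7.5, 10% glycerol, 5 mM DTT, 10 mM MgCl2, 0.1 mg/ml BSA.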

Compound | IC50 [4] [nM] | other results
COc1cnc(Cl)cc1-c1cnccc1C(=O)Nc1nnc(C#CC2CC2)s1 |  | Time-dependent CYP3A4 inhibition-shift after 30 min with NADPH (CYP3A4 [1]): 1x; PXR activation (% Max activity) (PXR nuclear receptor): 5.0%; fold induction at 24 h (PXR nuclear receptor): 1.8; IC50 (CYP3A4 [2]): > 30000 nM; microsomal CLint at 1 μM [3]: < 7.7 µL/min/mg
COc1ccc(F)cc1-c1cnccc1C(=O)Nc1nnc(C#Cc2ccc(C#N)cc2)s1 [Compound 473] | 3.5 | Time-dependent CYP3A4 inhibition-shift after 30 min with NADPH (CYP3A4 [1]): 1x; PXR activation (% Max activity) (PXR nuclear receptor): 2.0%; fold induction at 24 h (PXR nuclear receptor): 1.3; IC50 (CYP3A4 [2]): 1110 nM; microsomal CLint at 1 μM [3]: 46.4 µL/min/mg
COc1cnc(C(F)F)cc1-c1cc(C#CCN2CC[S+]([O-])CC2)ncc1C(=O)Nc1nnc(C#CC2CC2)s1 [Compound 596] | 0.45 | 
COc1cnc(C(F)F)cc1-c1cc(C2C[C@H]2C(=O)N(C)C)ccc1C(=O)Nc1nnc(C#CC2CC2)s1 (mixture of isomers) [Compound 363] | < 0.25 | 
COc1cnc(C(F)F)cc1-c1cc(C#CCN2CCOCC2)ncc1C(=O)Nc1nnc([C@H]2C[C@@H]2c2cscn2)s1 (racemic) [Compound 634, 2′-(difluoromethyl)-5′-methoxy-6-(3-morpholinoprop-1-yn-1-yl)-N-(5-((1S,2S)-2-(thiazol-4-yl)cyclopropyl)-1,3,4-thiadiazol-2-yl)-[4,4′-bipyridine]-3-carboxamide] | 0.86 | 
COc1cnc(C(F)F)cc1-c1cc(N2CCC(C(C)(C)C)CC2=O)ncc1C(=O)Nc1nnc(C#CC2CC2)s1 (racemic) [Compound 444] | < 0.25 | 
COc1cnc(C(F)F)cc1-c1cc(C#CC(C)(C)O)ncc1C(=O)Nc1nnc([C@H]2C[C@@H]2C)s1 (racemic) [Compound 619] | 4.9 | 
COc1cnc(C(F)F)cc1-c1cc(-n2ccc(OC3CCN(C)C3)cc2=O)ncc1C(=O)Nc1nnc(C#CC2CC2)s1 (racemic) [Compound 612] | 0.85 | 
C#C[C@H]1C[C@@H]1c1nnc(NC(=O)c2cnc(-n3cccc(C(F)(F)F)c3=O)cc2-c2cc(C(F)F)ncc2OC)s1 [Compound 575] | 0.32 | 

Second part, led by results:

IC50 [4] [nM] | Compound | other results
0.36 | COc1cnc(C(F)F)cc1-c1cc(N2C[C@H](C)OCC2=O)ncc1C(=O)Nc1nnc(C#CC2CC2)s1 [Compound 486] | 
6.4 | COc1cnc(C(F)F)cc1-c1cc(CC2CCOCC2)ncc1C(=O)Nc1nnc(C#CC2CC2)s1 [Compound 267] | 
1.1 | COc1cnc(C(F)F)cc1-c1cc(-n2ccc(C)cc2=O)ncc1C(=O)Nc1nnc([C@H]2C[C@@H]2C)s1 [Compound 545] | 
